According to patent EP4722219A1 (Gan & Lee Pharmaceuticals Co., Ltd., priority 2023, dated 2024):

Experiments:
Assay type in all cases: cell-based
SMARCA2 [1] = molecular target: T1, SMARCA2 (Homo sapiens, UniProt P51531); assay: SMARCA2 degradation in HeLa cells (Western blot); design: endogenous in cells; conditions: 4 hours
Protocol: (§1) Test Example 10 Degradation rate (%) of SMARCA2/4 by the PROTAC compounds of the present invention in HeLa cells and SW1573 cells
(§2) HeLa cells were seeded at 1.2 x 10^5 cells/well in a 6-well plate. 2 mL of EMEM medium supplemented with 10% FBS was added to each well and the culture dish was incubated overnight to allow the cells to adhere. The next day, 1 µL of 160 µM and 1 µL of 2 µM compound were added to the corresponding wells, resulting in final compound concentrations of 80 nM and 1 nM, respectively, and a final DMSO concentration of 0.05%. The cells were returned to the incubator and incubated for another 4 hours.
(§3) After 4 hours, cells were harvested, the culture medium was aspirated, and the cells were rinsed once with 1 mL/well PBS. The PBS was aspirated, and 40 µL/well of RIPA lysis buffer containing protease inhibitors was added. After lysis and centrifugation, total protein extracts were obtained, and protein concentration in the extracts was determined by BCA assay. Protein electrophoresis was performed by SDS-PAGE, followed by constant voltage electrophoresis at 100 V for 60 minutes and the protein was then transferred to a PVDF membrane. The PVDF membrane was blocked in 5% skim milk powder for 1 hour at room temperature. Primary antibodies (SMARCA2: CST#11966S, SMARCA4: CST#49360S, GAPDH: CST#5174S) were added and incubated overnight at 4°C. After washing the membrane, secondary antibodies were added and incubated at room temperature for 1 hour (protected from the light). After washing, the membrane was exposed using an Odyssey luminometer. Grayscale analysis of bands was performed using Image Studio software.
(§4) The degradation rate (%) of SMARCA2/4 by the PROTAC compounds of the present invention in HeLa cells and SW1573 cells is shown in Table 10. Table 10 Degradation rate of SMARCA2/4 by PROTAC compounds of the present invention in HeLa cells and SW1573 cells (%)

SMARCA4 [2] = molecular target: T2, SMARCA4 (Homo sapiens, UniProt P51532); assay: SMARCA4 degradation in HeLa cells (Western blot); design: endogenous in cells; conditions: 4 hours; for Dmax at 0.001 µM / Dmax at 0.08 µM: read-out: Degradation rate of SMARCA4 in HeLa cells (%)
T2 sequence (P51532 whole entry): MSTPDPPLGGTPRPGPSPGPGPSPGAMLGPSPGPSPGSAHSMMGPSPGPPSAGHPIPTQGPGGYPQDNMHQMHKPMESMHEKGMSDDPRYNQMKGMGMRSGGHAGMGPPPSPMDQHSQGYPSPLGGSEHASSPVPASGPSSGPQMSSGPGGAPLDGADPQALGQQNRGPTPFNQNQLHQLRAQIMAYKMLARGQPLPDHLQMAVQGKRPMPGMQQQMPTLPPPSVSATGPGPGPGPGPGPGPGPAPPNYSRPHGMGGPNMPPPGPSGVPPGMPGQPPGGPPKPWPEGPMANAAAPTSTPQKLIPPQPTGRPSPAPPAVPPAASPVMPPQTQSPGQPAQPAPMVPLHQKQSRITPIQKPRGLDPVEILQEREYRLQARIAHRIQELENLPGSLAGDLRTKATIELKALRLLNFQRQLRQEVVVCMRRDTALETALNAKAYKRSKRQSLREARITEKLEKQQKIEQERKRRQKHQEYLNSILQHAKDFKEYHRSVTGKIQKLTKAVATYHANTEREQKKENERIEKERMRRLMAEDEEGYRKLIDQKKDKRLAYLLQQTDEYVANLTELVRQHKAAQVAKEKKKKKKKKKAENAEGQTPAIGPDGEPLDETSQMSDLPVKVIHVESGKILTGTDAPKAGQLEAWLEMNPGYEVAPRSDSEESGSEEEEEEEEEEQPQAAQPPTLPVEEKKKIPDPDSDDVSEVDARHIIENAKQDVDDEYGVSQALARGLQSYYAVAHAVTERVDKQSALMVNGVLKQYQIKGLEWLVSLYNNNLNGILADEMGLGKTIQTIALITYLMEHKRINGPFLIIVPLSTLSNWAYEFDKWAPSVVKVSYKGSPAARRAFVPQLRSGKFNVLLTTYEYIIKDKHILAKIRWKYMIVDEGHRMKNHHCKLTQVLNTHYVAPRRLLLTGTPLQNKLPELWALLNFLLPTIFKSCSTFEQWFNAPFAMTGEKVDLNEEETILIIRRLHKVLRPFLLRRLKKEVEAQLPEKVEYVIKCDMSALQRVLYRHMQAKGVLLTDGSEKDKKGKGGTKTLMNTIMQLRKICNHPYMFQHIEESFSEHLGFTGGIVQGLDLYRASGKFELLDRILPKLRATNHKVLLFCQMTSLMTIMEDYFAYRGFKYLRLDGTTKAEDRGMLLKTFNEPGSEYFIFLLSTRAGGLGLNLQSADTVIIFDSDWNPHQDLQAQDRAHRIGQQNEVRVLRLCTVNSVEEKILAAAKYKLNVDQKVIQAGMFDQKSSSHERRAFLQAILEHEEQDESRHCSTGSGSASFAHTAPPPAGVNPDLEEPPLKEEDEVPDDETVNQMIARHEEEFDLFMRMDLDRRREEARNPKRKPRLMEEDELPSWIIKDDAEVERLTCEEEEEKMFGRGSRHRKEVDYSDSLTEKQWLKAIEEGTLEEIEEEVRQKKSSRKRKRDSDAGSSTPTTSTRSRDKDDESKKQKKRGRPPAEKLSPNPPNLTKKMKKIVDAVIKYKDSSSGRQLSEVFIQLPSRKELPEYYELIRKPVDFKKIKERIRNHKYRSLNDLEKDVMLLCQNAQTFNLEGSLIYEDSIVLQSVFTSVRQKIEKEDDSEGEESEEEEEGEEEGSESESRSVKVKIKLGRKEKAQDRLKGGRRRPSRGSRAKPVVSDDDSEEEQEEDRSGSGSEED
Protocol: HeLa cells were seeded at 1.2 x 10^5 cells/well in a 6-well plate. 2 mL of EMEM medium supplemented with 10% FBS was added to each well and the culture dish was incubated overnight to allow the cells to adhere. […] The cells were returned to the incubator and incubated for another 4 hours.
as §3, with “Primary antibodies (SMARCA2: CST#11966S, SMARCA4: CST#49360S, GAPDH: CST#5174S) were added and incubated overnight at 4°C.” left out
as §4

SMARCA2 [3] = molecular target: T1, SMARCA2; assay: SMARCA2 degradation in SW1573 cells (Western blot); design: endogenous in cells; host or cells: SW1573; conditions: 24 hours
Protocol: as §1
as §2, with “SW1573” for “HeLa”, “2x10^5Cells/well” for “1.2 x 10^5 cells/well”, “and” for “and the culture dish”, “cell attachment.” for “the cells to adhere.”, “wells for treatment,” for “wells,”, “24” for “4”
as §3, with “After 24” for “After 4”, “the” for “the culture”
as §4

SMARCA4 [4] = molecular target: T2, SMARCA4; assay: SMARCA4 degradation in SW1573 cells (Western blot); design: endogenous in cells; host or cells: SW1573; conditions: 24 hours; for Dmax at 0.001 µM / Dmax at 0.08 µM: read-out: Degradation rate of SMARCA4 in SW1573 cells (%)
Protocol: SW1573 cells were seeded at 2x10^5Cells/well in a 6-well plate. 2 mL of EMEM medium supplemented with 10% FBS was added to each well and was incubated overnight to allow cell attachment. […] The cells were returned to the incubator and incubated for another 24 hours.
as §3, with “After 24” for “After 4”, “the” for “the culture”, “temperature. […]” for “temperature. Primary antibodies (SMARCA2: CST#11966S, SMARCA4: CST#49360S, GAPDH: CST#5174S) were added and incubated overnight at 4°C.”
as §4

T1 sequence (P51531 whole entry): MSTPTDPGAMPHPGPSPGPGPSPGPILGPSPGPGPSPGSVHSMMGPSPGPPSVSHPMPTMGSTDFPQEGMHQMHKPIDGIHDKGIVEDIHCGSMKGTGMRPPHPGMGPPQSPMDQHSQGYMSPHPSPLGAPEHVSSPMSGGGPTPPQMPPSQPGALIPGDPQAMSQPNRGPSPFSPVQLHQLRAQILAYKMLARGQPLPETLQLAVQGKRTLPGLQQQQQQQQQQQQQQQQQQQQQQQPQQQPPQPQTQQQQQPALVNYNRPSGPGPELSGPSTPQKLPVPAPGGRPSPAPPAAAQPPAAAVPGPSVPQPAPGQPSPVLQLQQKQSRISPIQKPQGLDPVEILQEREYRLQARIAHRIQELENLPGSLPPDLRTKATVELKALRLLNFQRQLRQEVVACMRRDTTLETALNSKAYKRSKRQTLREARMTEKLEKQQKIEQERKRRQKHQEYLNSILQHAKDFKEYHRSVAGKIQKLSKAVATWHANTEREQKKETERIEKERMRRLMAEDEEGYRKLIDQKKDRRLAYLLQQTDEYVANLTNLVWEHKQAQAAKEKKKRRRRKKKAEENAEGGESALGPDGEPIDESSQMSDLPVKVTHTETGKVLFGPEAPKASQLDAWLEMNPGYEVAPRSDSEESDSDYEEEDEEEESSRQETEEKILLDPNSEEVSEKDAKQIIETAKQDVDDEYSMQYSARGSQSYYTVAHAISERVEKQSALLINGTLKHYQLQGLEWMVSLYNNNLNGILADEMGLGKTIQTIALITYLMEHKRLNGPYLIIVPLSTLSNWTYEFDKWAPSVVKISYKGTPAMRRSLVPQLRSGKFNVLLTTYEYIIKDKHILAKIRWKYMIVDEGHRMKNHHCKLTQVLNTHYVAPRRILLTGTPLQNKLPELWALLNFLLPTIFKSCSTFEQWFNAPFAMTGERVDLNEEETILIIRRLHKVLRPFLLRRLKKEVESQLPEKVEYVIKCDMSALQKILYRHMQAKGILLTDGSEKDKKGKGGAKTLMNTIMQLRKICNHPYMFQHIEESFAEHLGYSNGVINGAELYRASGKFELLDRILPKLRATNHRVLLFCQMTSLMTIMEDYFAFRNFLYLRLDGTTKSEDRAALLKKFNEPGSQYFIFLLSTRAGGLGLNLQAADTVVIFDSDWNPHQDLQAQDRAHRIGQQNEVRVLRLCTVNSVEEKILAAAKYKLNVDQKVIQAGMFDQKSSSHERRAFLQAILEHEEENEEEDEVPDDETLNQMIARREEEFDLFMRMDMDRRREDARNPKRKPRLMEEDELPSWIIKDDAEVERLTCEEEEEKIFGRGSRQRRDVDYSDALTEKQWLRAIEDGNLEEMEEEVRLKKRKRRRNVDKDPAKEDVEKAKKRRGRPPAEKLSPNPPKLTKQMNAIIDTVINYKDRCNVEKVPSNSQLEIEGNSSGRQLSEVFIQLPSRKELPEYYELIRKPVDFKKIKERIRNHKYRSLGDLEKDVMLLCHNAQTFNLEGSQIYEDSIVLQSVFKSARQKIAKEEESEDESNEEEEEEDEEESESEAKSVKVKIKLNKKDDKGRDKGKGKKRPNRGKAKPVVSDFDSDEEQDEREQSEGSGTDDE

Degradation rate of SMARCA2 in HeLa cells (%) (SMARCA2 [1]; 1 nM) | Degradation rate of SMARCA2 in HeLa cells (%) (SMARCA2 [1]; 80 nM) | Dmax at 0.001 µM (SMARCA4 [2]; 1 nM) | Dmax at 0.08 µM (SMARCA4 [2]; 80 nM) | Degradation rate of SMARCA2 in SW1573 cells (%) (SMARCA2 [3]; 1 nM) | Degradation rate of SMARCA2 in SW1573 cells (%) (SMARCA2 [3]; 80 nM) | Dmax at 0.001 µM (SMARCA4 [4]; 1 nM) | Dmax at 0.08 µM (SMARCA4 [4]; 80 nM) | SMILES | Degradation rate of SMARCA4 in HeLa cells (%) (SMARCA4 [2]; 1 nM) | Degradation rate of SMARCA4 in HeLa cells (%) (SMARCA4 [2]; 80 nM) | Degradation rate of SMARCA4 in SW1573 cells (%) (SMARCA4 [4]; 1 nM) | Degradation rate of SMARCA4 in SW1573 cells (%) (SMARCA4 [4]; 80 nM)
11% | 15% | -7% | 21% | 3% | 7% | -8% | -5% | Nc1nnc(-c2ccccc2O)cc1C#CC1CCC2(CC1)CC(N1CC3(CCc4cc(F)c(C(=O)N[C@H]5CCC(=O)NC5=O)cc4O3)C1)C2 (some centres unmarked) [SM-P-9] | – | – | – | –
17% | 98% | 38% | 99% | 14% | 77% | 11% | 95% | Cn1c(=O)n(C2CCC(=O)NC2=O)c2cc3c(cc21)C1(CCN(C(=O)[C@H]2CC[C@H](Cn4cc(-c5cc(-c6ccccc6O)nnc5N)cn4)CC2)CC1)CO3 (some centres unmarked) [SM-P-28, 3-(1'-((1r,4r)-4-((4-(3-amino-6-(2-hydroxyphenyl)pyridazin-4-yl)-1H-pyrazol-1-yl)methyl)cyclohexane-1-carbonyl)-1-methyl-2-oxo-1,2-dihydro-3H,6H-spiro[benzofuro[5,6-d]imidazole-7,4'-piperidin]-3-yl)piperidine-2,6-dione] | – | – | – | –
95% | 98% | 92% | 99% | 98% | 100% | 94% | 100% | Nc1nnc(-c2ccccc2O)cc1C#CC1CCC2(CC1)CC(N1CCC3(CC1)CCC1(CC3)COc3c1ccc1c3CN(C3CCC(=O)NC3=O)C1=O)C2 (centres unmarked) [SM-P-2] | – | – | – | –
6% | 14% | 17% | 24% | 32% | 32% | 28% | 5% | Nc1nnc(-c2ccccc2O)cc1C#CC1CCC2(CC1)CC(N1CCC3(CCc4cc(F)c(C(=O)N[C@H]5CCC(=O)NC5=O)cc4O3)CC1)C2 (some centres unmarked) [SM-P-12] | – | – | – | –
51% | 90% | 22% | 79% | 59% | 88% | 40% | 82% | Cn1c(=O)n(C2CCC(=O)NC2=O)c2ccc3c(c21)OCC31CCN(C(=O)[C@H]2CC[C@H](Cn3cc(-c4cc(-c5ccccc5O)nnc4N)cn3)CC2)CC1 (some centres unmarked) [SM-P-27, 3-(1'-((1r,4r)-4-((4-(3-amino-6-(2-hydroxyphenyl)pyridazin-4-yl)-1H-pyrazol-1-yl)methyl)cyclohexane-1-carbonyl)-1-methyl-2-oxo-1,2-dihvdro-3H,7H-spiro[benzofuro[6,7-d]imidazole-6,4'-piperidin]-3-yl)piperidine-2,6-dione] | – | – | – | –
– | – | – | – | 16% | 25% | -32% | -34% | CN(C(=O)c1ccc2c(c1)OC[C@H]1CN(C3CC4(CCC(C#Cc5cc(-c6ccccc6O)nnc5N)CC4)C3)CCN21)[C@H]1CCC(=O)NC1=O (some centres unmarked) [SM-P-18] | – | – | – | –
90% | 100% | 85% | 98% | 72% | 96% | 43% | 97% | Cn1c(=O)n(C2CCC(=O)NC2=O)c2cc3c(cc21)OC1(CC3)CCN(C2CC3(CCC(C#Cc4cc(-c5ccccc5O)nnc4N)CC3)C2)CC1 (centres unmarked) [SM-P-1, 3-(1'-(7-((3-amino-6-(2-hydroxyphenyl)pyridazin-4-yl)ethynyl)spiro[3.5]nonan-2-yl)-3-methyl-2-oxo-2,3,7,8-tetrahydro-1H-spiro[chromeno[6,7-d]imidazole-6,4'-piperidin]-1-yl)piperidine-2,6-dione] | – | – | – | –
– | – | – | – | 38% | 95% | -14% | 93% | Nc1nnc(-c2ccccc2O)cc1C#CC1CCC2(CC1)CC(N1CCC3(CC1)COc1cc(NC4CCC(=O)NC4=O)ccc1C3)C2 (centres unmarked) [SM-P-23, 3-((1'-(7-((3-amino-6-(2-hydroxyphenyl)pyridazin-4-yl)ethynyl)spiro[3.5]nonan-2-yl)spiro[chromane-3,4'-piperidin]-7-yl)amino)piperidine-2,6-dione] | – | – | – | –
– | – | – | – | 89% | 99% | – | – | Cc1ncsc1-c1ccc([C@H](C)NC(=O)[C@@H]2C[C@@H](O)CN2C(=O)[C@@H](NC(=O)[C@H]2CC[C@H](CN3CC4(CCC(n5cc(-c6cc(-c7ccccc7O)nnc6N)cn5)CC4)C3)CC2)C(C)(C)C)cc1 [SMD-3040, (2S,4R)-1-((S)-2-((1R,4S)-4-((7-(4-(3-amino-6-(2-hydroxyphenyl)pyridazin-4-yl)-1H-pyrazol-1-yl)-2-azaspiro[3.5]nonan-2-yl)methyl)cyclohexane-1-carboxamido)-3,3-dimethylbutanoyl)-4-hydroxy-N-((S)-1-(4-(4-methylthiazol-5-yl)phenyl)ethyl)pyrrolidine-2-carboxamide, reference compound] | – | – | 21% | 86%

SMILES | Degradation rate of SMARCA2 in HeLa cells (%) (SMARCA2 [1]; 1 nM) | Degradation rate of SMARCA2 in HeLa cells (%) (SMARCA2 [1]; 80 nM) | Dmax at 0.001 µM (SMARCA4 [2]; 1 nM) | Dmax at 0.08 µM (SMARCA4 [2]; 80 nM) | Degradation rate of SMARCA2 in SW1573 cells (%) (SMARCA2 [3]; 1 nM) | Degradation rate of SMARCA2 in SW1573 cells (%) (SMARCA2 [3]; 80 nM) | Dmax at 0.001 µM (SMARCA4 [4]; 1 nM) | Dmax at 0.08 µM (SMARCA4 [4]; 80 nM) | Degradation rate of SMARCA4 in HeLa cells (%) (SMARCA4 [2]; 1 nM) | Degradation rate of SMARCA4 in HeLa cells (%) (SMARCA4 [2]; 80 nM) | Degradation rate of SMARCA4 in SW1573 cells (%) (SMARCA4 [4]; 1 nM) | Degradation rate of SMARCA4 in SW1573 cells (%) (SMARCA4 [4]; 80 nM)
Nc1nnc(-c2ccccc2O)cc1C#CC1CCC2(CC1)CC(N1CCC3(CC1)COc1c3ccc(F)c1C(=O)N[C@H]1CCC(=O)NC1=O)C2 (some centres unmarked) [SM-P-19] | 14% | 59% | – | – | 11% | 31% | – | – | -11% | 24% | 1% | 0%
